These results are taken from patent US10245249B2, “Pharmaceutical compositions comprising nitroxyl donors” (Cardioxyl Pharmaceuticals, Inc., priority 2013, dated 2019).

One data set has as its system heart failure canines. In words: Hemodynamic efficacy in heart failure canines (tachycardia-pacing model). Format: in vivo, beagle dogs. Particulars: for ESP / ESPVR / HR / PRSW / SW / Tau / EDV: heart failure canines, i.v. infusion; for ESP / ESPVR / HR / PRSW / SW / Tau: Dose Rate (μmol/kg/min): CXL-1020 100, (1) 75, (2) 100, (83) 65, (84) 77; for EDV: Dose Rate : CXL-1020 100, (1) 75, (2) 100, (83) 65, (84) 77; for hemodynamic activity compared with CXL-1020: both normal and failing canine models, FIG. 1. Here is the method:
The cardiovascular effects of nitroxyl donors were examined by means of pressure-volume (PV) curve (loops) analysis in conscious, sling-restrained beagle dogs. Animals were allowed free access to drinking water and a commercial canine diet under standard laboratory conditions. Fluorescent lighting was provided via an automatic timer for approximately 12 hours per day. On occasion, the dark cycle was interrupted intermittently due to study-related activities. Temperature and humidity were monitored and recorded daily and maintained to the maximum extent possible between 64° F. and 84° F. and 30% to 70%, respectively. The dogs were acclimated for a period of at least 1 week prior to surgery. Following surgery and recovery the animals were acclimated to sling restraint for a period up to 4.5 hours. Animals were fasted overnight prior to surgery. An indwelling venous catheter was placed in peripheral vein (e.g., cephalic) for administration of anesthetic. General anesthesia was induced intravenously (bolus) with buprenorphine (about 0.015 mg/kg) followed by an intravenous bolus of propofol (about 6 mg/kg). Additionally, a prophylactic antibiotic (cefazolin 20 to 50 mg/kg via i.v.) was given upon induction. […] Anesthesia was maintained with inhaled isoflurane (1% to 3%). Once a stable (surgical) plane of anesthesia had been established, a left-thoracotomy was performed (under strict aseptic conditions) and each animal was chronically instrumented with sono-micrometry crystals providing left-ventricular (LV) dimensions/volume. Additionally, a fluid-filled catheter and a solid-state monometer were placed in the left ventricle for pressure monitoring. A fluid-filled catheters was placed in the right ventricle (RV) and the aorta (Ao) for pressure monitoring/test article administration. […] The catheters/wires were aseptically tunneled and externalized between the scapulae. Over the course of the study, fluid-filled catheters were regularly (at least once weekly) flushed with a locking-solution in order to prevent both clotting and bacterial growth (2-3 mL of Taurolidine-Citrate solution, TCS-04; Access Technologies). Following the cardiovascular instrumentation, the right jugular vein was carefully exposed and cannulated with a bipolar pacing lead/catheter ([…]® Novus; Medtronic). Under fluoroscopic guidance, this pacing lead was advanced normograde into the right ventricle and actively affixed (screwed in) to the apical endocardium. The proximal end of the lead was secured to the pacing device (Kappa 900; Medtronic). Subsequently, the pacemaker was placed/secured in a subcutaneous pocket in the neck. Considering that the heart was exposed via a thoracotomy, a bipolar pacing wire was secured in the right ventricular mid-myocardium. This pacing lead was tunneled/externalized between the scapulae, and used in conjunction with an external impulse generator/pacemaker. The implanted endocardial pacemaker was used as a back-up to the external/epicardial pacemaker. Prior to closure of the chest from the thoracotomy, a chest tube was placed for drainage of any fluid and/or gas that accumulated from the surgical procedure. The tube was aspirated twice daily until the amount of fluid removed was less than 35 mL per aspiration in an approximately 24 hour period. The chest tube was then removed. All animals were administered a prophylactic antibiotic (cefazolin 20 to 50 mg/kg via i.v.) and pain medication (meloxicam at about 0.2 mg/kg via i.v.). If necessary, an additional analgesic was also administered which included a fentanyl patch (25 to 50 mcg/hour). All surgical incisions were closed in layers; the underlying musculature was closed with absorbable sutures and the skin was closed with staples. Following surgery, the animals were allowed to recover for at least 14 days. Cephalexin (20 to 50 mg/kg) was administered orally BID for at least 7 days and meloxicam (0.1 mg/kg) was administered SID orally or subcutaneously for at least 2 days after surgery. […]

Data set [1] in a line: In vitro stability (half-life) in human plasma. Particulars: human plasma pH 7.4 with anticoagulant, 37° C.; for T1/2 (minutes) Human: 5 μM; for half-life at 5 μM: male, read-out: T1/2 (minutes) Human. Format: in vitro ADME. On the procedure: (§1) Certain compounds from Tables 1 and 2 and CXL-1020 were tested for their stability in phosphate buffered saline (PBS) and plasma. The assay system comprised (i) PBS, or plasma from rat, dog or human (at least 3 donors, male, pooled) at pH 7.4, and (ii) for tests conducted in plasma, an anticoagulant (sodium heparin or sodium citrate). Each test compound (5 μM) was incubated in PBS or plasma at 37° C. on a THERMOMIXER® with shaking. Three samples (n=3) were taken at each of seven sampling time points: 0, 10, 30, 60, 90, 180 and 360 minutes. The samples were immediately combined with 3 volumes (i.e., 3 times the volume of PBS or plasma) of acetonitrile containing 1% formic acid and an internal standard to terminate the reaction. AB SCIEX API 3000 LC-MS/MS analysis of the test compounds was performed without a standard curve. Half-lives (T1/2) of the test compounds were determined from graphs of the percent remaining values using the peak area response ratio. For compounds tested multiple times, the value provided in the Table represents an average of the replicate assays.

Data set [2] in a line: In vitro stability (half-life) in dog plasma. Format: in vitro ADME. Particulars: male, dog, plasma, pH 7.4, 5 μM, dog plasma pH 7.4 with anticoagulant, 37° C.; read-out: T1/2 (minutes) Dog. Here is the method: as §1

On to `CS(=O)(=O)c1ccccc1S(=O)(=O)NO` [CXL-1020, N-hydroxy-2-methanesulfonylbenzene-1-sulfonamide, reference compound], for which, in the data set on heart failure canines, the ESP is on record as −14.78 ± 3.24 % Change from Baseline, the ESPVR amounted to 45.42 ± 16.48 % Change from Baseline, the HR is recorded as −0.23 ± 2.25 % Change from Baseline and the PRSW was determined as 21.97 ± 3.79 % Change from Baseline. For the same molecule, in the data set with heart failure canines, the SW is −12.01 ± 4.24 % Change from Baseline, the Tau was −17.27 ± 1.39 % Change from Baseline and the EDV is listed as −12.03 ± 3.72 % Change from Baseline.

For `Cc1ccc(S(=O)(=O)NO)o1` [Compound 1, N-Hydroxy-5-methylfuran-2-sulfonamide], the “T1/2 (minutes) Human” value in data set [1] was 65 min. In addition, in the data set with heart failure canines, the “hemodynamic activity compared with CXL-1020” value is recorded as “comparable hemodynamic activity to CXL-1020”, the ESP is recorded as −17 ± 1 % Change from Baseline, the ESPVR was 29 ± 1 % Change from Baseline and the HR is listed as −6 ± 2 % Change from Baseline. In the data set with heart failure canines, the PRSW is given as 22 ± 1 % Change from Baseline, the SW is on record as 10 ± 5 % Change from Baseline, the Tau is −16 ± 4 % Change from Baseline and the EDV was −9 ± 2 % Change from Baseline.

`CS(=O)(=O)c1cccc(S(=O)(=O)NO)c1` [Compound 2, N-Hydroxy-3-methanesulfonylbenzene-1-sulfonamide]: in data set [1], the “T1/2 (minutes) Human” value turned out to be 37 min. Further, in the data set on heart failure canines, the “hemodynamic activity compared with CXL-1020” value is listed as “comparable hemodynamic activity to CXL-1020”, the ESP was −13.83 ± 3.30 % Change from Baseline, the ESPVR worked out at 22.84 ± 5.69 % Change from Baseline and the HR is listed as −1.36 ± 2.06 % Change from Baseline. Further, in the data set on heart failure canines, the PRSW is given as 17.91 ± 1.47 % Change from Baseline, the SW is given as −9.41 ± 2.84 % Change from Baseline, the Tau was −12.51 ± 2.72 % Change from Baseline and the EDV was −3.26 ± 1.05 % Change from Baseline.

In the case of `O=S(=O)(NO)c1ccco1` [Compound 83, N-Hydroxyfuran-2-sulfonamide], the half-life at 5 μM in data set [1] worked out at 16 min. Also, in data set [2], the half-life at 5 μM came out at 38 min. In addition, in the data set on heart failure canines, the “hemodynamic activity compared with CXL-1020” value is “comparable hemodynamic activity to CXL-1020”, the ESP is −18.52 ± 2.59 % Change from Baseline, the ESPVR is listed as 38.06 ± 8.79 % Change from Baseline and the HR worked out at 0.05 ± 1.25 % Change from Baseline. Besides, in the data set with heart failure canines, the PRSW is on record as 14.90 ± 2.27 % Change from Baseline, the SW is recorded as −9.63 ± 1.70 % Change from Baseline, the Tau is −18.32 ± 3.06 % Change from Baseline and the EDV was −4.91 ± 0.57 % Change from Baseline.

For the molecule `Cc1ccc(S(=O)(=O)NO)s1` [Compound 84, N-Hydroxy-5-methylthiophene-2-sulfonamide], in data set [1], the half-life at 5 μM stood at 60 min. Also, in data set [2], the half-life at 5 μM came out at 55 min. Besides, in the data set with heart failure canines, the “hemodynamic activity compared with CXL-1020” value is listed as “comparable hemodynamic activity to CXL-1020”, the ESP is −13.72 ± 2.83 % Change from Baseline, the ESPVR is recorded as 51.01 ± 5.85 % Change from Baseline and the HR was 3.72 ± 2.45 % Change from Baseline. Also, in the data set with heart failure canines, the PRSW turned out to be 25.03 ± 2.52 % Change from Baseline, the SW is recorded as −5.96 ± 1.58 % Change from Baseline, the Tau turned out to be 15.61 ± 1.58 % Change from Baseline and the EDV is −13.43 ± 4.63 % Change from Baseline.

With `Cn1ccc(S(=O)(=O)NO)n1` [Compound 85, N-Hydroxy-1-methyl-1H-pyrazole-3-sulfonamide], the half-life at 5 μM in data set [2] was 72 min. Besides, the “hemodynamic activity compared with CXL-1020” value in the data set on heart failure canines is on record as “comparable hemodynamic activity to CXL-1020”.
